Structures can show the parent of a compound that is named as a salt.
Key:
vascular permeability = experiment: Inhibitory effect on vascular permeability (acetic acid, Evans Blue, mice); type: in vivo, male ddY-strain mice; settings: 100 mg/kg, p.o.
Procedure: Male ddY-strain mice were orally administered with the compound of examples in 5% arabic gum suspension. After 45 minutes, 1% Evans Blue dissolved in saline (0.1 ml/10 g body weight) was injected into tail vein, and immediately, 1% of acetic acid diluted in saline (0.1 ml/10 g body weight) was injected into peritoneal cavity. Thirty minutes later, each mouse was sacrificed and peritoneal cavity was washed with saline (2 ml/10 g body weight). Peritoneal exuded fluid was collected and centrifuged at 3,000 rpm for 10 minutes. The optical density of supernatant was read at 630 nm. The volume of Evans Blue was determined from the calibration curve and the inhibition ratio was calculated.

adjuvant arthritis = experiment: Therapeutic effect on the adjuvant arthritis in rats (swelling of non-injected hind paw); type: in vivo, female SD-strain rats; settings: oral
Procedure: Heat-killed Mycobacterium butyricum (0.6 mg/rat) suspended in liquid paraffin was injected intradermally into right hind paw of female SD-strain rats. Test compounds suspended in 0.3% CMC solution were administered orally once a day for 7 days from 14 days to 20 days after the injection of adjuvant. The swelling of non-injected hind paw was measured by the water displacement method.

[1] = tested on: IgM antibody-producing cells; experiment: Effect on IgM antibody-producing cells in vitro (Jerne method); type: cell-based, BDF1-strain mice; settings: n 6; for IgM-PFC/culture (mean ± S.E.): reference 82 ± 15, *p < 0.01 (Dunnett's test)
Procedure: The spleen cells of BDF1 -strain mice were isolated by finely mincing the spleen, centrifuged, and suspended in medium (RPMI-1640+10% FCS). Each 50 μl of spleen cell suspension (2×10^7 cells/ml) and sheep erythrocyte suspension (1×10^7 cells/ml) was spread on a 96-well plate. Test compounds were dissolved in DMSO and diluted in medium. Then, 100 μl of medium containing test compounds were added to the 96-well plate. After the plate was incubated at 37° C. for 5 days in 5% CO2 incubator, the number of IgM antibody-producing cells was counted by Jerne method.

[2] = tested on: IgM antibody-producing cells; experiment: Effect on IgM antibody-producing cells in vivo (Jerne method); parameters: species or system BALB/c-strain mice; settings: 12.5 mg/kg/day, oral 4 days, n 7
Procedure: To a BALB/c-strain mice were intraperitoneally injected with 5×10^8 /0.1 ml of sheep erythrocytes. The test compound was administered orally once a day for 4 days since the erythrocyte injection. On the next day of final administration, the spleen cells were isolated by finely mincing the spleen, centrifuged and suspended in medium (RPMI-1640+10% FCS). The number of IgM antibody-producing cells was counted by Jerne method.

[3] = 25 mg/kg/day, 18 Days after adjuvant
[4] = 25 mg/kg/day, 21 Days after adjuvant
[5] = 25 mg/kg/day, 27 Days after adjuvant
[6] = 50 mg/kg/day, 18 Days after adjuvant
[7] = 50 mg/kg/day, 21 Days after adjuvant
[8] = 50 mg/kg/day, 27 Days after adjuvant

CCOC(=O)Cc1cc(Cl)c2c(c1)CCC(c1ccccc1F)N2 (stereo not drawn) [Example 4, Ethyl 8-chloro-2-(2-fluorophenyl)-1,2,3,4-tetrahydroquinoline-6-acetate]
Inhibition ratio (vascular permeability) (vascular permeability): 33.1%

O=C(O)Cc1cc(Cl)c2c(c1)CCC(c1ccccc1F)N2 (stereo not drawn) [Example 7, 8-Chloro-2-(2-fluorophenyl)-1,2,3,4-tetrahydroquinoline-6-acetic acid]
Inhibition ratio of swelling (adjuvant arthritis; [3]): 6% | Inhibition ratio of swelling (adjuvant arthritis; [4]): 19% | Inhibition ratio of swelling (adjuvant arthritis; [5]): 33% | Inhibition ratio of swelling (adjuvant arthritis; [6]): 36% | Inhibition ratio of swelling (adjuvant arthritis; [7]): 52% | Inhibition ratio of swelling (adjuvant arthritis; [8]): 50% | Inhibition ratio of swelling (adjuvant arthritis; 100 mg/kg/day, 18 Days after adjuvant): 59% | Inhibition ratio of swelling (adjuvant arthritis; 100 mg/kg/day, 21 Days after adjuvant): 64% | Inhibition ratio of swelling (adjuvant arthritis; 100 mg/kg/day, 27 Days after adjuvant): 64% | Inhibition ratio (vascular permeability) (vascular permeability): 51.1%

O=C(O)Cc1cc(Cl)c2c(c1)CCC(c1ccccc1)N2 (stereo not drawn) [Example 8, 8-Chloro-2-phenyl-1,2,3,4-tetrahydroquinoline-6-acetic acid]
Inhibition ratio (vascular permeability) (vascular permeability): 50.0%

COc1ccc(C2CCc3cc(CC(=O)O)cc(Cl)c3N2)cc1 (stereo not drawn) [Example 9, 8-Chloro-2-(4-methoxyphenyl)-1,2,3,4-tetrahydroquinoline-6-acetic acid]
Inhibition ratio (vascular permeability) (vascular permeability): 16.0%

CN1c2ccc(CC(=O)O)cc2CCC1c1ccccc1 (stereo not drawn) [Example 11, 1-Methyl-2-phenyl-1,2,3,4-tetrahydroquinoline-6-acetic acid]
Inhibition ratio (vascular permeability) (vascular permeability): 42.7%

CN1c2c(Cl)cc(CC(=O)O)cc2CCC1c1ccccc1 (stereo not drawn) [Example 12, 8-Chloro-1-methyl-2-phenyl-1,2,3,4-tetrahydroquinoline-6-acetic acid]
Inhibition ratio (vascular permeability) (vascular permeability): 52.7%

O=C(O)Cc1cc(Cl)c2c(c1)CCC(C(F)(F)F)N2 (stereo not drawn) [Example 15, 8-Chloro-1,2,3,4-tetrahydro-2-trifluoromethylquinoline-6-acetic acid]
IgM-PFC/culture (mean ± S.E.) ([1]; 2 × 10^-6 M): 24 ± 3 IgM-PFC/culture | IgM-PFC/culture (mean ± S.E.) ([1]; 5 × 10^-5 M): 31 ± 9 IgM-PFC/culture | inhibition at 2 µM ([1]; Mus musculus, 120 h, 2 × 10^-6 M, read-out: Inhibition ratio (IgM-PFC in vitro)): 71% | inhibition at 50 µM ([1]; Mus musculus, 120 h, 5 × 10^-5 M, read-out: Inhibition ratio (IgM-PFC in vitro)): 62% | Inhibition ratio of swelling (adjuvant arthritis; 12.5 mg/kg/day, 18 Days after adjuvant): 21% | Inhibition ratio of swelling (adjuvant arthritis; 12.5 mg/kg/day, 21 Days after adjuvant): 36% | Inhibition ratio of swelling (adjuvant arthritis; 12.5 mg/kg/day, 27 Days after adjuvant): 50% | Inhibition ratio of swelling (adjuvant arthritis; [3]): 39% | Inhibition ratio of swelling (adjuvant arthritis; [4]): 45% | Inhibition ratio of swelling (adjuvant arthritis; [5]): 52% | Inhibition ratio of swelling (adjuvant arthritis; [6]): 39% | Inhibition ratio of swelling (adjuvant arthritis; [7]): 56% | Inhibition ratio of swelling (adjuvant arthritis; [8]): 58% | Inhibition ratio (IgM-PFC in vivo) [2]: 35% | IgM-PFC/spleen (× 10^2) (mean ± S.E.) ([2]; reference 995 ± 55, *p < 0.05 (Dunnett's test)): 651 ± 49 IgM-PFC/spleen (× 10^2) | Inhibition ratio (vascular permeability) (vascular permeability): 29.1%

O=C(O)Cc1ccc2c(c1)CCC(C(F)(F)F)N2 (stereo not drawn) [Example 16, 1,2,3,4-Tetrahydro-2-trifluoromethylquinoline-6-acetic acid]
Inhibition ratio (vascular permeability) (vascular permeability): 37.3%

O=C(O)Cc1cc(Br)c2c(c1)CCC(C(F)(F)F)N2 (stereo not drawn) [Example 23, 8-Bromo-1,2,3,4-tetrahydro-2-trifluoromethylquinoline-6-acetic acid]
Inhibition ratio (vascular permeability) (vascular permeability): 38.6%

N#Cc1cc(CC(=O)O)cc2c1NC(C(F)(F)F)CC2 (stereo not drawn) [Example 24, 8-Cyano-1,2,3,4-tetrahydro-2-trifluoromethylquinoline-6-acetic acid]
Inhibition ratio (vascular permeability) (vascular permeability): 25.9%

O=C(O)Cc1cc2c(c(-c3ccccc3)c1)NC(C(F)(F)F)CC2 (stereo not drawn) [Example 27, 8-Phenyl-1,2,3,4-tetrahydro-2-trifluoromethylquinoline-6-acetic acid]
Inhibition ratio (vascular permeability) (vascular permeability): 27.0%

CC(=O)c1cc(CC(=O)O)cc2c1NC(C(F)(F)F)CC2 (stereo not drawn) [Example 28, 8-Acetyl-1,2,3,4-tetrahydro-2-trifluoromethylquinoline-6-acetic acid]
Inhibition ratio (vascular permeability) (vascular permeability): 16.7%

CSc1cc(CC(=O)O)cc2c1NC(C(F)(F)F)CC2 (stereo not drawn) [Example 29, 8-Methylthio-1,2,3,4-tetrahydro-2-trifluoromethylquinoline-6-acetic acid]
Inhibition ratio (vascular permeability) (vascular permeability): 18.4%

O=C(O)Cc1cc2c(c(C(=O)c3ccccc3)c1)NC(C(F)(F)F)CC2 (stereo not drawn) [Example 32, Sodium salt of 8-benzoyl-1,2,3,4-tetrahydro-2-trifluoromethylquinoline-6-acetic acid]
Inhibition ratio (vascular permeability) (vascular permeability): 19.7%

O=C(O)Cc1cc2c(c([N+](=O)[O-])c1)NC(C(F)(F)F)CC2 (stereo not drawn) [Example 33, 8-Nitro-1,2,3,4-tetrahydro-2-trifluoromethylquinoline-6-acetic acid]
Inhibition ratio (vascular permeability) (vascular permeability): 25.4%
